Measured values: patent US20070037785A1, “Novel dipeptidyl peptidase IV inhibitors used for functionally influencing different cells and treating immunological, infammatory, neuronal, and other diseases” (priority 2003, published 2007)

Target: dipeptidyl peptidase IV (Homo sapiens, UniProt P27487)
Assay: biochemical
Settings: values marked with "*" are ID50 values; read-out: IC50DPIV, values marked with "*" = ID50

Chain of dipeptidyl peptidase IV (P27487 whole entry, species assumed): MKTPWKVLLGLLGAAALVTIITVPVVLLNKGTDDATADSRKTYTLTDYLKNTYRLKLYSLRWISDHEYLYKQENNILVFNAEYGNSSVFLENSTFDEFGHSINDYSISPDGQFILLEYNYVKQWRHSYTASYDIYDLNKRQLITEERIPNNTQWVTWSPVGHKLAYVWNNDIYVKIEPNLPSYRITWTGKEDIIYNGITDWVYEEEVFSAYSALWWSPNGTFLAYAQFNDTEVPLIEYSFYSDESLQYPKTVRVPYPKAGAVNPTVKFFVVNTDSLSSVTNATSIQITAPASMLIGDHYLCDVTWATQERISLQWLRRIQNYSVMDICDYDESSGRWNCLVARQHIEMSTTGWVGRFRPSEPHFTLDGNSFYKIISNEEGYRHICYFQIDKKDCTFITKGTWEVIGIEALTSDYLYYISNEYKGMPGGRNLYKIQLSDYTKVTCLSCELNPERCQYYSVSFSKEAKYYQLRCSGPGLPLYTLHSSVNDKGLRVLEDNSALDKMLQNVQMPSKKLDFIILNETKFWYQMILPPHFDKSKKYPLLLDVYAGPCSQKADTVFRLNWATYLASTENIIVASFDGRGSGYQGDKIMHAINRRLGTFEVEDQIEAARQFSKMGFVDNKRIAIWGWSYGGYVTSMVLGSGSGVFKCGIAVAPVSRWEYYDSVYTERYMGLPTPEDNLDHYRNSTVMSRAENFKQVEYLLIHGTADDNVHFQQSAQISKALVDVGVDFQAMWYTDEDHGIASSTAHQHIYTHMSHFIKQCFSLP

SMILES	IC50
Cc1ccc(OCC(=O)N/N=C/c2ccccc2OC(=O)c2ccc([N+](=O)[O-])cc2)cc1 [D10.131]	257 µM
O=C(Nc1cccc(/N=C/c2cc(/N=N\c3ccccc3Cl)ccc2O)c1)c1ccco1 [D6.003]	2.5 µM
CS(=O)(=O)N1CCN(c2ccc([N+](=O)[O-])c(NCc3ccc(Cl)cc3)c2)CC1 [D5.053]	361 µM
CCn1c2ccccc2c2ccc(/C=N/NC(=O)c3ccc([N+](=O)[O-])cc3)cc21 [D7.001]	165 µM
CCC(=O)Oc1cccc(N2C(=O)C3C4C=CC(C3C2=O)C2C(=O)N(c3cccc(OC(=O)CC)c3)C(=O)C42)c1 (stereo not drawn) [D3.045]	4.2 µM
CCOC(=O)n1ccc(C(=O)Nc2cc(C)ccn2)n1 [D6.112]	148 µM
CC(=O)Nc1ccc(Nc2ccc(N3C(=O)CCCC3=O)cc2[N+](=O)[O-])cc1 [D4.079]	71.3 µM
COC(=O)c1ccc(/C=N/NC(=O)c2cc(C34CC5CC(CC(C5)C3)C4)n[nH]2)cc1 [D10.129]	243 µM
COc1ccc(NC(=O)CSc2nnc3n2-c2sc4c(c2C(=O)C3CCc2ccccc2)CC(C)(C)OC4)cc1 (stereo not drawn) [D3.111]	284 µM
Cc1ccccc1NC(=O)C(=O)N/N=C/c1cccc(Cl)c1 [D2.008]	275 µM
O=C(CCCCC(=O)N/N=C/c1ccc(OC(=O)c2cc([N+](=O)[O-])cc([N+](=O)[O-])c2)cc1)N/N=C/c1ccc(OC(=O)c2cc([N+](=O)[O-])cc([N+](=O)[O-])c2)cc1 [D10.001]	1 µM
O=C(NNC(=O)c1ccc([N+](=O)[O-])cc1)c1ccc(N2C(=O)c3ccc(C(=O)NNC(=O)c4ccc([N+](=O)[O-])cc4)cc3C2=O)cc1 [D10.137]	402 µM
COc1ccc(NC(=O)CSc2nnc3n2-c2sc4c(c2C(=O)C3CCc2ccccc2)CC(C)(C)OC4)cc1 (stereo not drawn) [D6.126]	284 µM

Same assay, conditions: values without "*" = IC-50; read-out: IC50DPIV

SMILES	IC50
O=C1CCCC(=O)N1c1ccc(N2CCc3ccccc3C2)c([N+](=O)[O-])c1 [D3.104]	28.8 µM
CCOC(=O)c1c(C)nn(-c2ccc(N3C(=O)CSCC3=O)cc2)c1C [D4.049]	37.4 µM
O=C(N/N=C/c1cc(Br)c(O)c(Br)c1O)/C(=C\c1ccc2c(c1)OCO2)NC(=O)c1ccccc1 [D10.089]	60 µM
O=C(N/N=C/c1cc(I)cc(I)c1O)c1ccc(NC(=O)c2ccccc2)cc1 [D10.062]	39.7 µM
O=C(Nc1cccc(/N=C/c2cc(I)cc(I)c2O)c1)c1ccco1 [D11.002]	9.2 µM
O=C1CCCC(=O)N1c1ccc(NCCc2ccc(O)cc2)c([N+](=O)[O-])c1 [D5.037]	54.8 µM
O=C1c2ccc(-c3nc4ccccc4c(=O)o3)cc2C(=O)N1c1ccc(Cc2ccc(N3C(=O)c4ccc(-c5nc6ccccc6c(=O)o5)cc4C3=O)cc2)cc1 [D3.032]	27.2 µM
CCCOC(=O)c1cc(-c2ccc(/C=C3/C(=O)N(CC(C)O)C(=O)C(C#N)=C3C)o2)ccc1Cl (stereo not drawn) [D6.095]	82.2 µM
COc1ccc(/C(C)=N/NC(=O)CNc2ccc3ccccc3c2)cc1OC [D10.053]	32.9 µM
CCOC(=O)CC(N)c1cccs1 (stereo not drawn) [D6.018]	15.2 µM
CN1CCN(c2nc3c(c(=O)n(C)c(=O)n3C)n2Cc2cccc(F)c2)CC1 [D3.054]	41.2 µM
COc1cc(Br)cc(Br)c1OCC(=O)N/N=C/c1cc(O)c(O)c(Br)c1Br [D10.010]	9.1 µM
C/C(=C\c1ccc(C(C)C)cc1)C1NCC(c2ccc([N+](=O)[O-])cc2)O1 (stereo not drawn) [D4.072]	65 µM
COc1ccc(NS(=O)(=O)c2ccc(/N=C/c3cc(Br)cc(Br)c3O)cc2)nn1 [D9.010]	88.8 µM
CCN(CC)c1ccc(/C=C(/NC(=O)c2ccccc2)C(=O)N/N=C/c2c(C)c(Br)c(O)c(Br)c2O)cc1 [D10.037]	20.4 µM
COc1ccc(CCN(C)c2ccc(N3C(=O)CCCC3=O)cc2[N+](=O)[O-])cc1OC [D4.062]	52.6 µM
CC1C(=O)N(Cc2ccccc2)C(=O)c2c1nc(N1CCNCC1)n2Cc1ccccc1 (stereo not drawn) [D6.069]	48.3 µM
CC(=O)Oc1ccc2oc(=O)c3c(c2c1)CCCN3C(C)=O [D12.029]	59.4 µM
N#Cc1ccc(/C=N/NC(=O)c2ccccc2[N+](=O)[O-])cc1 [D10.091]	62.2 µM
NC(=O)C1CCN(c2ccc(N3C(=O)CCCC3=O)cc2[N+](=O)[O-])CC1 [D4.070]	57 µM
CCc1c(C)[nH]c2c1/C(=N\OC(=O)C(C)C)CCC2 [D6.062]	43.8 µM
CCCOC(=O)c1cc(-c2ccc(/C=C3/C(=O)N(CC(C)O)C(=O)C(C#N)=C3C)o2)ccc1Cl (stereo not drawn) [D4.083]	82.2 µM
N#CC1=C(N)C(C#N)(C#N)C(c2ccccc2)C2CNCC=C12 (stereo not drawn) [D4.007]	6.9 µM
CN(C)c1ccc(/C=C(\NC(=O)c2ccccc2)C(=O)N/N=C/c2ccccc2[N+](=O)[O-])cc1 [D10.061]	39.2 µM

SMILES	IC50
C/C(=N/OC(=O)C(C)(C)C)c1cc2ccccc2oc1=O [D11.004]	14.1 µM
CC(C)C1Cc2c(sc3nc(SCC(=O)c4ccccc4)n(Cc4ccccc4)c(=O)c23)CO1 (stereo not drawn) [D3.067]	52.4 µM
CC(C)c1ccc2c(c1)[C@@H]1C=CC[C@@H]1[C@H](c1ccc(C(=O)O)cc1)N2 [D3.062]	46.4 µM
O=C(COc1ccc2ccccc2c1)N/N=C/c1c(Br)cc(Br)c(O)c1Br [D10.095]	69.6 µM
CCCC(=O)O/N=C(/C)c1cc2ccccc2oc1=O [D11.007]	18.9 µM
Cc1cc2ccccc2n1CCNC(=O)c1cccs1 [D6.044]	28.8 µM
CCN(CC)C(=O)C1CCCN(c2ccc([N+](=O)[O-])cc2/C=N/NC(=O)c2cccc([N+](=O)[O-])c2)C1 (stereo not drawn) [D5.036]	54 µM
CCCOC(=O)c1cc(-c2ccc(/C=C3\C(=O)N(CCCO)C(=O)C(C#N)=C3C)o2)ccc1Cl [D6.092]	76.3 µM
N#C/C(=C\c1ccc(N2CCCCC2)c([N+](=O)[O-])c1)c1nn(CCO)c(N)c1C#N [D4.032]	23.6 µM
COc1ccc(C(=O)CS/C2=N/CCCCCC2)cc1 [D1.004]	36.5 µM
O=C(N/N=C/c1cc(Br)c(O)c(Br)c1O)/C(=C\c1ccc2c(c1)OCO2)NC(=O)c1ccccc1 [D3.081]	60 µM
CC(=O)Oc1cccc(N2C(=O)c3ccc(C(=O)NCc4ccc(C(=O)O)cc4)cc3C2=O)c1 [D4.023]	18.2 µM
CCOC(=O)c1n[nH]c2c1C(=O)N(c1ccc([N+](=O)[O-])cc1)C2=O [D2.005]	54.5 µM
CC(C)(C)C(=O)N1CCN(c2cc(Cl)nc(SCC(=O)N3CCN(Cc4ccc5c(c4)OCO5)CC3)n2)CC1 [D3.059]	45.6 µM
Cn1c(=O)n(Cc2ccccc2)c(=O)c2c1nc(N1CCNCC1)n2Cc1ccccc1 [D5.034]	48.3 µM
CCOC(=O)C(NC(=O)c1ccccc1)(N1CCOCC1)C(F)(F)F (stereo not drawn) [D5.041]	61.9 µM
CCOc1cc(/C=N\NC(=O)c2cnccn2)ccc1O [D10.027]	16.7 µM
COc1ccc(OCC(=O)N/N=C\C(C)=C/c2ccc(/C=C(C)\C=N/NC(=O)COc3ccc(OC)cc3Br)cc2)c(Br)c1 [D10.101]	91.3 µM
CCCc1cccc(/C=N/NC(=O)c2cc(-c3ccc(F)cc3)n[nH]2)c1O [D6.079]	55.3 µM
CCOC(=O)C1=C2SCC(=O)N2C(N)=C(C#N)C1 [D3.009]	14.1 µM
COc1ccc(OCC(=O)N/N=C/c2c(Br)cc(Br)c(O)c2Br)cc1 [D10.109]	113 µM
CC1=C(C#N)C(=O)N(CCO)C(=O)/C1=C\c1ccc(-c2cc(Cl)ccc2Cl)o1 [D6.071]	51.7 µM
Cc1ccc(C(=O)N/C(=C/c2ccco2)C(=O)N(C)C)cc1 [D6.091]	47.7 µM
